Test results from patent publication US20230025836A1, “EYE DROP COMPOSITION FOR PREVENTING OR TREATING EYE DISEASE” (Samjin Pharmaceutical Co., Ltd., priority 2019, published 2023).
In brackets after ≈: the same amount, converted by molar mass.

Experiment: Solubility of the active material in water
Type: physicochemical
Excerpt: In one embodiment, the eye drop may comprise the above-described solubilizing agent, so that an active ingredient thereof may be well dissolved and may not be precipitated even after long-term storage, thus resulting in better physical stability and chemical stability. In one embodiment, a concentration of the solubilizing agent in the eye drop may be 0.1 w/v % to 25.0 w/v %. In one embodiment, the type of the solubilizing agent may not be particularly limited, but may include, for example, at least one selected from the group consisting of surfactants, solvents, and mixtures thereof as follows. […] Thus, in one embodiment, the eye drop may comprise the solubilizing agent to dissolve 3-phenyl-4-propyl-1-(pyridin-2-yl)-1H-pyrazol-5-ol by 0.1% (1,000 μg/mL) to 2.0% (20,000 μg/mL).

solubility: ~3.4 µg/mL (≈ 12.2 µM)
SMILES: CCCc1c(-c2ccccc2)nn(-c2ccccn2)c1O [3-phenyl-4-propyl-1-(pyridin-2-yl)-1H-pyrazol-5-ol]
